SMILES strings stand for the structures. Where two headings read alike, the source gives them in different places. Where only a bound is given, the exact number is not on record here.

Experiment [1] deals with T1, hERG channel (Homo sapiens, UniProt Q12809).
T1 construct: host or cells: CHO cells
Kind of experiment: hERG channel inhibitory activity, whole-cell patch clamp (auto-patch clamp system). Format: cell-based. As to the method: Evaluation of hERG (Human Ether-a-go-go Related Gene) Channel Inhibitory Activity
The hERG channel inhibitory activity of the compound of the present invention was measured using CHO cells (B′ SYS GmbH) forcibly expressing hERG channels involved in human rapidly active delayed rectifier potassium current (IKr) by the whole-cell patch clamp method using an auto-patch clamp system (SyncroPatch384PE).
Cell suspension, extracellular fluid, intracellular fluid, and measurement plate (NPC-384 plate) were placed in the auto-patch clamp system, and hERG current measurements were performed using the whole-cell patch clamp method. The voltage protocol was set to a holding potential of −80 mV, with a depolarizing pulse preceded by −90 mV (100 ms) and followed by −80 mV (100 ms).
The depolarizing pulse was […] (500 ms), and then the hERG peak current value obtained during the ramp phase was measured when the voltage was lowered to −80 mV over 100 ms. The protocol was applied at 5-second intervals for 5 minutes for each concentration.
SyncroPatch software (manufactured by Nanion) was used for data analysis. Four concentrations were applied incrementally for each test substance, and the average hERG Peak current value obtained from the last three stimuli of each applied concentration was used as the evaluation data. The IC50 value was calculated from the inhibition rate of the current at each concentration of each test substance relative to the pre-application value using Hill's equation (Hill equation) using the relevant software.
The same experiments were also performed using the example compounds described in WO 2023/145804 as comparative example compounds 1-4.

Experiment [2] deals with T2, Human BOAT1 (Homo sapiens, UniProt Q695T7).
T2 construct: expressed in transfected cells
T2 sequence (Q695T7 1-634): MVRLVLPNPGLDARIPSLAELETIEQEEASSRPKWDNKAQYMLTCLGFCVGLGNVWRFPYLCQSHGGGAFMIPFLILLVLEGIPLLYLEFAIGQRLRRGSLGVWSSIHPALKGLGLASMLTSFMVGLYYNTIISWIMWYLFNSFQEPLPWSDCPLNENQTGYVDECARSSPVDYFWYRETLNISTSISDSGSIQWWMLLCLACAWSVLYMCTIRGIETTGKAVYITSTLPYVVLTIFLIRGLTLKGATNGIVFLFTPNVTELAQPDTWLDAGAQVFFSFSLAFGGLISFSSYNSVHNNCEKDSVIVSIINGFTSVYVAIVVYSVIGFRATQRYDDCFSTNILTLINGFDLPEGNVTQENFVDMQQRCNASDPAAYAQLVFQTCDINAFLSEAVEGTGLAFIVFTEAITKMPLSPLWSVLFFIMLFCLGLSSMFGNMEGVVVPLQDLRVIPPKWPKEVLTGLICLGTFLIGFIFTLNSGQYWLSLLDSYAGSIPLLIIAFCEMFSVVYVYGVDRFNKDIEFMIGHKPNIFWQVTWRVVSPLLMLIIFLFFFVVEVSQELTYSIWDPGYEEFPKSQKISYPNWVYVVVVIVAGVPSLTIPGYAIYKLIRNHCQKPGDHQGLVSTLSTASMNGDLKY
Kind of experiment: hBOAT1 inhibitory test (phenylalanine uptake). In kind it is cell-based. The conditions noted are these: Human BOAT1 stable expression CHO cells, phenylalanine 0.25 mM, read-out: hB0AT1 IC50. The procedure:
A test compound dissolved in dimethyl sulfoxide (DMSO) was added to a 96 well plate for solid phase radioactivity measurement containing a scintillator at the bottom of the well (final concentration of DMSO 0.5%). DMSO alone as a control and DMSO containing N-(4-bromophenyl)-3,5-dichloro-2-hydroxybenzamide (final concentration […]) for the measurement of BOAT1 non-specific uptake were similarly added at 0.5 μL per well. Human BOAT1 stable expression CHO cells suspended in a buffer (buffer containing 96 mM sodium chloride, 2 mM potassium chloride, 1.8 mM calcium chloride, 1 mM magnesium chloride, 0.01% bovine serum albumin, and 10 mM 2-[4-(2-hydroxyethyl)-1-piperazinyl]ethanesulfonic acid) were added by 90 μL to 75000 cells/well. After standing at ordinary temperature for 30 min or longer, the cells were subjected to a phenylalanine uptake experiment. A buffer containing L-phenylalanine and [3,4,5-3H]-L-phenylalanine was added by 10 μL per well (final concentration of phenylalanine 0.25 mM), and the radioactivity of the plate bottom surface at ordinary temperature was measured with a scintillation counter over time, and the radioactivity value after 100 to 200 min was analyzed.

Setting [3] is: [3H]-L-phenylalanine uptake, radioactivity after 100 to 200 min.
The mark [4] stands for this setting: comparative example compounds of WO 2023/145804, read-out: hERG inhibition IC50.

T1 sequence (Q12809 whole entry): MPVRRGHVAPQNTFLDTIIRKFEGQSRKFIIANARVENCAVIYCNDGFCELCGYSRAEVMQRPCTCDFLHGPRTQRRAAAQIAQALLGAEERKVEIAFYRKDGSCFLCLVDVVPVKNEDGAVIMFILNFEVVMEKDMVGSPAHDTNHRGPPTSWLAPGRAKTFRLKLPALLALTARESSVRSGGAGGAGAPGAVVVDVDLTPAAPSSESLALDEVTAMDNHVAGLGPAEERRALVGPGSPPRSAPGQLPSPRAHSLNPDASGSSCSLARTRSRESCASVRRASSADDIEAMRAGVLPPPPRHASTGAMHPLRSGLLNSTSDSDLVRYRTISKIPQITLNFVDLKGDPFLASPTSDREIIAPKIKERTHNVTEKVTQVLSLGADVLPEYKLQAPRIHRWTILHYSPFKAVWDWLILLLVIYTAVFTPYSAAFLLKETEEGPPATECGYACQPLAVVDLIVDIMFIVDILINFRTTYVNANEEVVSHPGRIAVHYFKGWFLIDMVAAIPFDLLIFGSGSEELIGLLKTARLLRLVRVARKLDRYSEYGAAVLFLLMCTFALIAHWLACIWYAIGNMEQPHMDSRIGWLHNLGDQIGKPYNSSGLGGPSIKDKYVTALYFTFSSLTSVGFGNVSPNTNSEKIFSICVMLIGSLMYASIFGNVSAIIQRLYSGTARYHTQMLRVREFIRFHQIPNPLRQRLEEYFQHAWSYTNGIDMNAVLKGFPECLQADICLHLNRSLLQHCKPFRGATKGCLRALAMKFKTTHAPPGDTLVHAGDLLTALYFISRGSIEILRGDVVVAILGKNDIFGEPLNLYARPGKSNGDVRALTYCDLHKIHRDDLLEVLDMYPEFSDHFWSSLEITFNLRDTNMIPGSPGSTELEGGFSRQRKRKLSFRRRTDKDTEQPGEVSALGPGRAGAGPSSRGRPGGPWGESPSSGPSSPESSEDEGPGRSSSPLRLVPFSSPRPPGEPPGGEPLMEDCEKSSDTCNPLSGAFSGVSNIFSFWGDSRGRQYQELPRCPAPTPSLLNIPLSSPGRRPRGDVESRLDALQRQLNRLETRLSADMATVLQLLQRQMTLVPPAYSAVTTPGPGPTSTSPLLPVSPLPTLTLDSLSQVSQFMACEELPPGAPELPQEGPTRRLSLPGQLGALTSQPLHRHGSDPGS

In the case of `CC(C(=O)O)c1ccc2c(c1)CCN(C(=O)CNC(=O)/C=C/c1ccc(C(F)(F)F)cc1)C2` (racemic) [I-171], the IC50 – broadly, the concentration that inhibits the measured activity by half – in experiment [1] (read-out: hERG IC50) was over 30 µM; in experiment [2] (setting [3]), 91 nM.
For `O=C(/C=C/c1ccc(C(F)(F)F)cc1)NCC(=O)N1CCc2cc([C@@H]3C[C@H]3C(=O)O)ccc2C1` (racemic) [I-172, (1R*,2R*)-2-[2-[2-[[(E)-3-[4-(trifluoromethyl)phenyl]prop-2-enoylamino]acetyl]-3,4-dihydro-1H-isoquinolin-6-yl]cyclopropanoic acid], in that order: over 30 µM and 155 nM.
As to `O=C(O)CCCN1CCN(C(=O)CNC(=O)/C=C/c2ccc(C(F)(F)F)cc2F)C(c2cccc(Br)c2)C1` (racemic) [I-234, 4-[3-(3-bromophenyl)-4-[2-[[(E)-3-[2-fluoro-4-(trifluoromethyl)phenyl]prop-2-enoyl]amino]acetyl]piperazin-1-yl]butanoic acid], the IC50 is over 30 µM in experiment [1] (read-out: hERG IC50) and 50 nM in experiment [2] (setting [3]).
For `O=C(O)CCCN1CCN(C(=O)CNC(=O)/C=C/c2ccc(C(F)(F)F)cc2F)C(c2ccc(Cl)cc2)C1` (racemic) [I-236, 4-[3-(4-chlorophenyl)-4-[2-[[(E)-3-[2-fluoro-4-(trifluoromethyl)phenyl]prop-2-enoyl]amino]acetyl]piperazin-1-yl]butanoic acid], in that order: over 30 µM and 94 nM.
On to `CC(C(=O)O)c1ccc2c(c1)CCN(C(=O)CNC(=O)/C=C/c1ccc(C(F)(F)F)cc1)C2` (single isomer, unassigned) [I-286, 2-[2-[2-[[(E)-3-[4-(trifluoromethyl)phenyl]prop-2-enoyl]amino]acetyl]-3,4-dihydro-1H-isoquinolin-6-yl]propanoic acid], for which the values for the half-inhibitory concentration (IC50) in experiment [1] (read-out: hERG IC50) and in experiment [2] (phenylalanine uptake) were over 30 µM and 303 nM, respectively.
For the molecule `CC(C(=O)O)c1ccc2c(c1)CCN(C(=O)CNC(=O)/C=C/c1ccc(C(F)(F)F)cc1)C2` (single isomer, unassigned) [I-287, 2-[2-[2-[[(E)-3-[4-(trifluoromethyl)phenyl]prop-2-enoyl]amino]acetyl]-3,4-dihydro-1H-isoquinolin-6-yl]propanoic acid], the IC50 was over 30 µM in experiment [1] (read-out: hERG IC50) and 178 nM in experiment [2] (phenylalanine uptake).
For `O=C(/C=C/c1ccc(C(F)(F)F)cc1)NCC(=O)N1CCc2cc([C@@H]3C[C@H]3C(=O)O)ccc2C1` (single isomer, unassigned) [I-288, (1R*,2R*)-2-[2-[2-[[(E)-3-[4-(trifluoromethyl)phenyl]prop-2-enoyl]amino]acetyl]-3,4-dihydro-1H-isoquinolin-6-yl]cyclopropane-1-carboxylic acid], the figures for the IC50 in experiment [1] (read-out: hERG IC50) and in experiment [2] (phenylalanine uptake) were over 30 µM and 152 nM, respectively.
Consider `CN1CCN(C(=O)CNC(=O)/C=C/c2ccc(C(F)(F)F)cc2)C(c2ccccc2)C1` (stereo not shown) [Comparative Example compound 1, reference compound], for which the IC50 in experiment [1] (setting [4]) amounted to 2.09 µM.
Still for that read-out and setting: to `O=C(/C=C/c1ccc(C(F)(F)F)cc1)NCC(=O)N1CCNCC1` [Comparative Example compound 2, reference compound] belongs 8.72 µM; to `CN1CCN(C(=O)CNC(=O)/C=C/c2ccc(C(F)(F)F)cc2)CC1` [Comparative Example compound 3, reference compound], 3.63 µM; to `O=C(/C=C/c1ccc(C(F)(F)F)cc1)NCC(=O)N1CCc2ncsc2C1` [Comparative Example compound 4, reference compound], 5.96 µM.
As for `O=C(/C=C/c1ccc(C(F)(F)F)cc1)NCC(=O)N1CCc2cc(C3(C(=O)O)CC3)ccc2C1` [I-166], the IC50 in experiment [1] (read-out: hERG IC50) is over 30 µM.
Turning to `COc1cc2c(cc1CC(=O)O)CCN(C(=O)CNC(=O)/C=C/c1ccc(C(F)(F)F)cc1)C2` [I-176], the IC50 in experiment [1] (read-out: hERG IC50) was over 30 µM.
On the same count and under the same terms, then `O=C(O)Cc1cc2c(s1)CCN(C(=O)CNC(=O)/C=C/c1ccc(C(F)(F)F)cc1)C2` [I-178], with over 30 µM; and `O=C(O)CCCN1CCN(C(=O)CNC(=O)/C=C/c2ccc(C(F)(F)F)cc2F)CC1C(F)(F)F` (stereo not shown) [I-198], with over 30 µM; and `C[C@@H]1CN(CCCC(=O)O)[C@@H](C)CN1C(=O)CNC(=O)/C=C/c1ccc(C(F)(F)F)cc1F` [I-235], with over 30 µM.
Still for that read-out and setting: to `C[C@H]1CN(C(=O)CNC(=O)/C=C/c2ccc(C(F)(F)F)cc2F)[C@@H](c2ccccc2)CN1CCCC(=O)O` [I-252] belongs over 30 µM; to `O=C(/C=C/c1ccc(C(F)(F)F)cc1F)NCC(=O)N1CCCC(c2ccccc2C(=O)O)C1` (stereo not shown) [I-253], 26.2 µM.
For the molecule `O=C(O)CCCN1CCN(C(=O)CNC(=O)/C=C/c2ccc(C(F)(F)F)cc2F)C(c2ccc(Cl)c(F)c2)C1` (stereo not shown) [I-267], in experiment [1] (read-out: hERG IC50), the IC50 was over 30 µM.
Consider `O=C(O)CCCN1CCN(C(=O)CNC(=O)/C=C/c2ccc(C(F)(F)F)cc2F)CC1C1CCCCC1` (stereo not shown) [I-271], for which, in experiment [1] (read-out: hERG IC50), the IC50 came to 16.4 µM.
In the case of `CNC(=O)Cc1cnn2c1CN(C(=O)CNC(=O)/C=C/c1ccc(C(F)(F)F)cc1)CC2` [I-374], the IC50 in experiment [2] (setting [3]) was found to be 54 nM.
The same measure, in the same setting: to `CNC(=O)Cc1nc2c(s1)CCN(C(=O)CNC(=O)/C=C/c1ccc(C(F)(F)F)cc1F)C2` [I-376] belongs 77 nM.
The same measure, in the same setting: to `CNC(=O)Cc1ccc2c(n1)CCN(C(=O)CNC(=O)/C=C/c1ccc(C(F)(F)F)cc1)C2` [I-377] belongs 48 nM; to `O=C(/C=C/c1ccc(C(F)(F)F)cc1F)NCC(=O)N1CCc2cc(Cc3nn[nH]n3)cc(Cl)c2C1` [I-378, (E)-N-[2-[8-chloro-6-(1,2,3λ4,4-tetraazacyclopenta-2,4-dien-5-ylmethyl)-3,4-dihydro-1H-isoquinolin-2-yl]-2-oxoethyl]-3-[2-fluoro-4-(trifluoromethyl)phenyl]prop-2-enamide], 232 nM.
As to `C[C@@H]1CN(C(=O)CNC(=O)/C=C/c2ccc(C(F)(F)F)cc2F)[C@@H](c2ccccc2)CN1CCCc1nn[nH]n1` [I-379, (E)-3-[2-fluoro-4-(trifluoromethyl)phenyl]-N-[2-[(2S,5R)-4-[3-(1,2,3λ4,4-tetraazacyclopenta-2,4-dien-5-yl)propyl]-5-methyl-2-phenylpiperazin-1-yl]-2-oxoethyl]prop-2-enamide], in experiment [2] (setting [3]), the half-maximal inhibitory concentration (IC50) is 2520 nM.
Take `C[C@@H]1CN(C(=O)CNC(=O)/C=C/c2ccc(C(F)(F)F)cc2F)[C@@H](c2ccc(C3CC3)cc2)CN1CCC(=O)O` [I-382, 3-[(2R,5S)-5-(4-cyclopropylphenyl)-4-[2-[[(E)-3-[2-fluoro-4-(trifluoromethyl)phenyl]prop-2-enoyl]amino]acetyl]-2-methylpiperazin-1-yl]propanoic acid]: the IC50 in experiment [2] (setting [3]) came to 63 nM.
Turning to `O=C(O)CCCN1C[C@H](c2ccccc2)N(C(=O)CNC(=O)/C=C/c2ccc(C(F)(F)F)cc2F)C[C@H]1C(F)(F)F` [I-399], the half-inhibitory concentration (IC50) in experiment [2] (phenylalanine uptake) is 2890 nM.
Same read-out and setting: to `O=C(O)CCCN1CCN(C(=O)CNC(=O)/C=C/c2ccc(C(F)(F)F)cc2F)C(c2noc3ccccc23)C1` (stereo not shown) [I-400] belongs 292 nM; to `O=C(O)CCCN1CCN(C(=O)CNC(=O)C=Cc2ccc(C(F)(F)F)cc2F)C(c2nc(-c3ccccc3)no2)C1` (stereo not shown) [I-402], 235 nM.
The same measure, in the same setting: to `O=C(O)CCCN1CCN(C(=O)CNC(=O)/C=C/c2ccc(C(F)(F)F)cc2F)C(c2cccnc2)C1` (stereo not shown) [I-403] belongs 1720 nM.

The record behind these values is patent publication US20260001849A1, “NOVEL B0AT1 INHIBITOR” (MITSUBISHI TANABE PHARMA CORPORATION, priority 2023, published 2026).
